Data as given in patent US12446577B2 (priority 2018, dated 2025).
Like-named read-outs stand apart in the source and are kept apart here.

What was measured:
Colletotrichum coccodes = assay: Mycelium growth inhibition on PDA (Example 2); assay type: cell-based; details: 6 days at 25° C; for Average mycellium diameter: n = 4; for % inhibition of the pathogens: vs untreated PDA
Procedure: (§1) Strains used for this trial (Table 3) were kept and refreshed on Potato Dextrose Agar (PDA) at 25° C.
(§2) In a first setup, a test composition was directly added to PDA (about 20 mL/petri dish) (Table 4). Plugs of agar (diameter 8 mm) from two week-old cultures were placed at the center of the PDA plates. Each test was performed in 4 repetitions. The petri dishes were then incubated at 25° C. After 6 days of incubation, the diameter of the colonies was measured in 2 perpendicular directions. The percentage of inhibition was calculated for each tested composition and compared to the untreated PDA.

[1] = system: Botrytis cinerea (grapevine); assay: Mycelium growth inhibition on PDA (Example 2); assay type: cell-based; details: 6 days at 25° C; for Average mycellium diameter: n = 4; for % inhibition of the pathogens: vs untreated PDA
Procedure: as §1, §2

[2] = system: Botrytis cinerea (lettuce); assay: Mycelium growth inhibition on PDA (Example 2); assay type: cell-based; details: 6 days at 25° C; for Average mycellium diameter: n = 4; for % inhibition of the pathogens: vs untreated PDA
Procedure: as §1, §2

Alternaria solani = assay: Mycelium growth inhibition on PDA (Example 2); assay type: cell-based; details: 6 days at 25° C; for Average mycellium diameter: n = 4; for % inhibition of the pathogens: vs untreated PDA
Procedure: as §1, §2

Bintje leaflets = assay: Phytotoxicity symptoms on dipped potato leaflets (Example 4); assay type: in vivo; details: highest concentration (10 L/ha), 7 days
Phytophthora infestans = assay type: in vivo; details: 1 min dip, 7 days of incubation; for Lesion Size: n = 5
Fusarium graminearum = assay type: cell-based; details: 6 days at 25° C; for Average mycellium diameter: n = 4; for % inhibition of the pathogens: vs untreated PDA
apple trees = assay: Phytotoxicity on apple trees in the powdery mildew trial; assay type: in vivo; details: repeated applications during the season, 10 mL/L
From the text: During the third week of March 2017, 60 branched apple trees (rootstock M9—clone Golden B) of 2 years were transplanted from a local nursery into pots (pot: 12 Liters). The 60 potted apple plants were maintained outside the greenhouse in S. Michele all′Adige (Trento). Plants were maintained divided in 3 blocks. Each block was composed of 20 plants arranged in two rows (See scheme 1). Plants were watered through a drip irrigation system once or twice a week according to the weather conditions. The insecticidal treatments were applied uniformly on all the experimental plants. Two of the three objects were treated against powdery mildew in accordance with the foreseen spray scheme: Chemical treatments, TMAP alone, untreated. One object was maintained Untreated as reference. For the “Chemical” object, different active ingredients were used alone or in combination (Table 13).
The treatments were performed at the same time, and timings of spray were done weekly and according to the weather conditions. The applications were done with a pressurized hand sprayer (water volume 1.5-2 L per object).

[3] = system: Powdery Mildew (Podosphaera xanthii); assay: Single leaf test powdery mildew on zucchini; details: zucchini leaf N sprayed with 0.8% in water; 8 days after the treatment
Procedure: Single leaf test Powdery Mildew (Podosphaera xanthii). A zucchini plant was selected with a powdery mildew infection on old leaves. In addition to a leaf showing the first signs of infection of powdery mildew (leaf N−1), two leaves without infection (leaf N and N+1) were selected.
Leaves (N+1) and (N−1) were left untreated. The fungal infection was assessed 8 days after the treatment.

Pythium ultimum = assay: Mycelium growth inhibition on PDA (Example 7); assay type: cell-based; details: 3 days at 25° C; for Average mycelium diameter: n = 4
Procedure: (§3) Strains used for this trial were kept and refreshed on Potato Dextrose Agar (PDA) at 25° C.
(§4) To begin, a quantity of test product was directly added in a certain volume of PDA (about 20 mL/petri dish) (Table 11). Plugs of agar (diameter 10 mm) from one week-old cultures were placed at the centre of the PDA plates. Each object was performed in 4 repetitions. The petri dishes were then incubated at 25° C. in the dark. After 3 and 6 days of incubation, the diameter of the colonies was measured in 2 perpendicular directions. The percentage of inhibition was calculated for each product/concentration compare to the untreated.

Sclerotinia minor = assay: Mycelium growth inhibition on PDA (Example 7); assay type: cell-based; details: 3 days at 25° C; for Average mycelium diameter: n = 4
Procedure: as §3, §4

Botrytis cinerea = assay: Mycelium growth inhibition on PDA (Example 7); assay type: cell-based; details: 3 days at 25° C; for Average mycelium diameter: n = 4
Procedure: as §3, §4

Sclerotinia sclerotiorum = assay: Mycelium growth inhibition on PDA (Example 7); assay type: cell-based; details: 3 days at 25° C; for Average mycelium diameter: n = 4
Procedure: as §3, §4

Rhizoctonia solani = assay: Mycelium growth inhibition on PDA (Example 7); assay type: cell-based; details: 3 days at 25° C; for Average mycelium diameter: n = 4
Procedure: as §3, §4

lettuce plants = assay: Phytotoxicity on lettuce plants after spraying; assay type: in vivo; details: 2.5% pelargonic acid, sprayed until run-off, n = 6, scale 0 to 100%
Procedure: A neutralization reaction was made with pelargonic acid (>97%) and choline hydroxide (45%) based on the titration curve (FIG. 1). Based on the titration curve, a stock solution of choline pelargonate (29.1% PLA (>97%) and 40.4% Choline hydroxide (45%)) was made by mixing 14.55 mL pelargonic acid with 15.25 mL distilled water and afterwards the addition of 20.2 mL choline hydroxide. The choline pelargonate stock solution was diluted in distilled water to obtain a diluted choline pelargonate composition comprising about 2.5% pelargonic acid. The total concentration of choline pelargonate in the water spray solution was 37.08 g a.i./L (a.i.=active ingredient).
The next step was to assess the phytotoxicity of a composition comprising choline pelargonate on lettuce plants. As a control, plants were treated with water. The plants were also treated with a diluted pelargonic acid composition, including a diluted pelargonic acid solution based on the commercial product Beloukha (Belchim Crop Protection).
Lettuce plants were sprayed with a small hand sprayer until run-off with the respective compositions and incubated at 20° C. Each composition was tested with a setup consisting out of six plants. A visual assessment was made on lettuce plants after spraying. The effect of phytotoxicity (necrosis or discolouration) was scored by a scale from 0 to 100%, with 0% no phytotoxicity and 100% fully phytotoxicity on plants.

[4] = dose rate 1 L·kg/ha (0.2 mL in 100 mL water)
[5] = dose rate 10 L·kg/ha (2 mL in 100 mL water)

CCCCCCCCC(=O)[O-].C[N+](C)(C)CCO [Choline pelargonate, choline pelargonate]
Average mycellium diameter (Colletotrichum coccodes; 0.36% AI in PDA): 0.0 ± 0.0 mm
% inhibition of the pathogens (Colletotrichum coccodes; 0.36% AI in PDA): 100%
Average mycellium diameter (Colletotrichum coccodes; 3.6% AI in PDA): 0.0 ± 0.0 mm
% inhibition of the pathogens (Colletotrichum coccodes; 3.6% AI in PDA): 100%
Average mycellium diameter ([1]; 0.36% AI in PDA): 0.0 ± 0.0 mm
% inhibition of the pathogens ([1]; 0.36% AI in PDA): 100%
Average mycellium diameter ([1]; 3.6% AI in PDA): 0.0 ± 0.0 mm
% inhibition of the pathogens ([1]; 3.6% AI in PDA): 100%
Average mycellium diameter ([2]; 0.36% AI in PDA): 0.0 ± 0.0 mm
% inhibition of the pathogens ([2]; 0.36% AI in PDA): 100%
Average mycellium diameter ([2]; 3.6% AI in PDA): 0.0 ± 0.0 mm
% inhibition of the pathogens ([2]; 3.6% AI in PDA): 100%
Average mycellium diameter (Alternaria solani; 0.36% AI in PDA): 0.0 ± 0.0 mm
% inhibition of the pathogens (Alternaria solani; 0.36% AI in PDA): 100%
Average mycellium diameter (Alternaria solani; 3.6% AI in PDA): 0.0 ± 0.0 mm
% inhibition of the pathogens (Alternaria solani; 3.6% AI in PDA): 100%
phytotoxicity symptoms on leaflets (Bintje leaflets): some minor phytoxicity symptoms on the edge and stem
Efficacy (%) (Abbott) (Phytophthora infestans; [4]): 84.9%
Lesion Size (Phytophthora infestans; [4]): 0.41 ± 0.57 cm^2
Efficacy (%) (Abbott) (Phytophthora infestans; [5]): 100.0%
Lesion Size (Phytophthora infestans; [5]): 0.00 ± 0.00 cm^2
Average mycellium diameter (Fusarium graminearum; 0.36% AI in PDA): 17.6 ± 21.1 mm
% inhibition of the pathogens (Fusarium graminearum; 0.36% AI in PDA): 77%
Average mycellium diameter (Fusarium graminearum; 3.6% AI in PDA): 0.0 ± 0.0 mm
% inhibition of the pathogens (Fusarium graminearum; 3.6% AI in PDA): 100%
symptoms of phytotoxicity on the plants (apple trees): no symptoms of phytotoxicity
surface of leaf covered by powdery mildew [3]: less than 5%
% efficacy compared to control (Abbott) (Pythium ultimum; 0.042% a.i. in PDA): 100%
Average mycelium diameter (Pythium ultimum; 0.042% a.i. in PDA): 0.0 ± 0.0 mm
% efficacy compared to control (Abbott) (Pythium ultimum; 0.42% a.i. in PDA): 100%
Average mycelium diameter (Pythium ultimum; 0.42% a.i. in PDA): 0.0 ± 0.0 mm
% efficacy compared to control (Abbott) (Sclerotinia minor; 0.042% a.i. in PDA): 96%
Average mycelium diameter (Sclerotinia minor; 0.042% a.i. in PDA): 2.8 ± 4.3 mm
% efficacy compared to control (Abbott) (Sclerotinia minor; 0.42% a.i. in PDA): 99%
Average mycelium diameter (Sclerotinia minor; 0.42% a.i. in PDA): 0.8 ± 0.9 mm
% efficacy compared to control (Abbott) (Botrytis cinerea; 0.042% a.i. in PDA): 98%
Average mycelium diameter (Botrytis cinerea; 0.042% a.i. in PDA): 0.9 ± 1.8 mm
% efficacy compared to control (Abbott) (Botrytis cinerea; 0.42% a.i. in PDA): 100%
Average mycelium diameter (Botrytis cinerea; 0.42% a.i. in PDA): 0.0 ± 0.0 mm
% efficacy compared to control (Abbott) (Sclerotinia sclerotiorum; 0.042% a.i. in PDA): 98%
Average mycelium diameter (Sclerotinia sclerotiorum; 0.042% a.i. in PDA): 1.4 ± 0.5 mm
% efficacy compared to control (Abbott) (Sclerotinia sclerotiorum; 0.42% a.i. in PDA): 100%
Average mycelium diameter (Sclerotinia sclerotiorum; 0.42% a.i. in PDA): 0.0 ± 0.0 mm
% efficacy compared to control (Abbott) (Rhizoctonia solani; 0.042% a.i. in PDA): 67%
Average mycelium diameter (Rhizoctonia solani; 0.042% a.i. in PDA): 17.1 ± 1.9 mm
% efficacy compared to control (Abbott) (Rhizoctonia solani; 0.42% a.i. in PDA): 100%
Average mycelium diameter (Rhizoctonia solani; 0.42% a.i. in PDA): 0.3 ± 0.5 mm
Phytotoxicity (%) evaluation on lettuce plants (lettuce plants; 0 DAA): 0.00%
Phytotoxicity (%) evaluation on lettuce plants (lettuce plants; 1 DAA): 1.33%
Phytotoxicity (%) evaluation on lettuce plants (lettuce plants; 2 DAA): 1.67%
Phytotoxicity (%) evaluation on lettuce plants (lettuce plants; 7 DAA): 3.50%
